The text below walks through data of US20090042978A1, “Pharmaceutical Compositions Containing Nitrovinylfuran Derivatives for the Treatment of Leishmaniosis and Trypanosomosis” (CENTRO DE BIOACTIVOS QUIMICOS, priority 2005, published 2009).

The structures appear in SMILES notation. ≈ marks a conversion by molar mass, not a printed value. Where “and” joins values, the source holds several entries; their conditions need not be identical. Equal values may be shown once. Read-outs that look alike come from different tables or passages of the source.

For series [1], the system named is L. donovani infantum promastigotes. Kind of series: In vitro activity against Leishmania promastigotes (infantum). In kind it is cell-based. Also noted: CP100: unit not given here. How it is done:
(§1) Mean inhibitory concentrations (Cl50%) against L. mexicana amazonensis, L. donovani infantum and L. braziliensis braziliensis promastigotes were determined according to the method described by Bodley A L et al (J Infect Dis 1995; 172(4):1157-9.). Minimal parasiticidal concentrations (CP100, minimal concentrations capable of abolishing the motility of all parasites in the culture) were also determined. Amphotericin B and Glucantime® were tested as reference drugs.

Series [2] in a line: Toxicological studies (LD50, LD0, MTD), intraperitoneal. Format: in vivo, female Balb/c mice. The conditions noted are these: for MTD at 14 days: female, Balb/c. How it is done: The same animal model used for in vivo anti-leishmanial tests was used to perform comparative toxicological studies of the β-nitrovinylfuran derivatives. The main excipient of the compositions used with this purpose was the sunflower oil. The mean lethal doses (LD50) of each β-nitrovinylfuran derivative and Amphotericin B were estimated in female Balb/c mice (18-20g body weight), treated by a single intraperitoneal injection. The maximal non-lethal doses (LD0) were calculated from the dose-mortality curves. The maximal tolerated doses (MTD, maximal dose causing neither mortality nor body weight losses over 10% respect to the initial weight) by repeated intraperitoneal administration every 12 or 24 h during 14 days were determined as well.

Series [3] concerns L. m. amazonensis. Kind of series: Experimental cutaneous leishmaniosis, chronic lesions treated every 12 h. Format: in vivo, Balb/c mice. On the procedure: Mice developed chronic leishmanial lesions at eighteen weeks post-infection. Lesions were ulcerated and covered with a thick crust. The average dorso-plantar diameter of the infected foot was 1.23±0.24 cm and the lateral diameter was 1.24±0.19 cm. At that stage the treatment started twice a day with either 2-bromo-5-(2-bromo-2-nitrovinyl)-furan at 2 mg/Kg; 2-bromo-5-(2-methyl-2-nitrovinyl)-furan at 50 mg/Kg or Amphotericin B at 5 mg/Kg every other day. A control group formed by infected non-treated mice was also included in the experiment. All drugs were administered by intraperitoneal route for 14 days. […] Amphotericin B was not effective, since neither the dorso-plantar nor the lateral diameters differed statistically from the lesions of the control group (P>0.05).

Series [4] concerns L. m. amazonensis. Briefly: Experimental cutaneous leishmaniosis, early stage lesions treated every 12 h. Format: in vivo, Balb/c mice. How it is done: (§2) Balb/c mice were experimentally infected with L. m. amazonensis promastigotes by intradermal injection in the footpads and six weeks later they were treated with the test compounds by intraperitoneal route. The product 2-bromo-5-(2-bromo-2-nitrovinyl)-furan was administered at a dose of 5 mg/Kg; the 2-bromo-5-(2-methyl-2-nitrovinyl)-furan, at 50 mg/Kg and Amphotericin B, at 1 mg/Kg. Animals were daily dosed for 14 days. Miglyol 810, the vehicle used for the β-nitrovinylfuran derivatives, was similarly administered to a group of mice.
The experiment was essentially carried out in a similar way as the one described above. However, 2-bromo-5-(2-bromo-2-nitrovinyl,-furan was administered at a dose of 2 mg/Kg and 2-bromo-5-(2-methyl-2-nitrovinyl)-furan at 100 mg/Kg. Treatments were administered by intraperitoneal route, but every 12 h instead of 24 h.

Series [5] deals with L. mexicana amazonensis promastigotes. Briefly: In vitro activity against Leishmania promastigotes (amazonensis). Format: cell-based. Set-up: CP100: unit not given here. How it is done: as §1
Series [6] relates to L. m. amazonensis. Kind of series: Experimental cutaneous leishmaniosis, early stage lesions treated every 24 h. Format: in vivo, Balb/c mice. Particulars: D 5 mg/Kg. On the procedure: as §2
Series [7] concerns cutaneous leishmaniosis. Kind of series: Treatment of human cutaneous leishmaniosis, topical ointment. In kind it is in vivo. Particulars: oily ointment 0.15%, topical once a day, 21 days. On the procedure:
One hundred patients with parasitological diagnose of cutaneous leishmaniosis were treated. Patients were topically treated, once a day, for 21 days with an oily ointment containing 0.15% 2-bromo-5-(2-bromo-2-nitrovinyl)-furan as active ingredient and petrolatum as the main excipient.

In series [8] the test system is trypomastigotes of T. cruzi. Briefly: In vitro activity against Trypanosoma cruzi. Format: cell-based. On the procedure: The in vitro activity of the β-nitrovinylfuran derivatives was tested against trypomastigotes of T. cruzi grown in a rat myoblast cell line. Minimal parasiticidal concentrations (minimal concentration that immobilizes all the parasites in the culture) and mean inhibitory concentrations (concentration that reduces the number of parasites to 50% of those found in the un-treated control cultures) were determined according to Buckner's method (Antimicrob Agents Chemother 1996; 40(11):2592-7).

In series [9] the test system is L. braziliensis braziliensis promastigotes. Kind of series: In vitro activity against Leishmania promastigotes (braziliensis). In kind it is cell-based. Set-up: CP100: unit not given here. On the procedure: as §1
The mark [10] stands for this setting: minimal parasiticidal concentration.

Broadly, the LD50 is the dose at which mortality reaches 50%.

Consider `O=[N+]([O-])C(Br)=Cc1ccc(Br)o1` [D, 2-bromo-5-(2-bromo-2-nitrovinyl)-furan], for which the IC50 in series [1] (Leishmania donovani, mean inhibitory concentration, read-out: CI50 (the source's name)) was 0.35 µg/mL (≈ 1.18 µM); in series [5] (Leishmania mexicana, mean inhibitory concentration, read-out: CI50 (the source's name)), 0.25 µg/mL (≈ 0.842 µM); in series [8] (Trypanosoma cruzi, T. cruzi trypomastigotes grown in rat myoblast cell line, read-out: CI50 (the source's name)), 4.1 µg/mL and 13.9 µM; in series [9] (Leishmania braziliensis, mean inhibitory concentration, read-out: CI50 (the source's name)), 0.26 µg/mL (≈ 0.876 µM). Also, the CP100 in [1] (setting [10]) was 0.86; in series [5] (minimal parasiticidal concentration abolishing motility of all parasites), 1.53; in series [8] (minimal concentration that immobilizes all parasites) it was 10.0 μg/mL and 33.7 μM; in [9] (setting [10]), 0.49. In addition, the MTD at 14 days in series [2] (mouse, in vivo, ip, repeated intraperitoneal administration every 12 h during 14 days, read-out: MTD (every 12 h)) is 2 to 3 mg/kg; in series [2] (mouse, in vivo, ip, repeated intraperitoneal administration every 24 h during 14 days, read-out: MTD (every 24 h)), 5 mg/kg. Also, the LD0 in series [2] (maximal non-lethal dose calculated from dose-mortality curves, single i.p. injection) was 15 mg/kg. In [2] (mouse, in vivo, ip, single intraperitoneal injection, female Balb/c mice, read-out: LD50), the LD50 turned out to be 24 mg/kg. For the same compound, the “dorso-plantar diameter versus control” value in series [3] (by the end of treatment) was “significantly different”. Also, the lesion size result in series [3] (by the end of treatment (14 days)) is given as “decrease of lesion size”; in [4] (first week of treatment, 2 mg/Kg i.p. every 12 h, P<0.001 vs control), “decreased during the first week of treatment”; in series [4] (seven days after finishing treatment, P<0.05) it was “smaller than those of controls”. The “dorso-plantar diameter of the infected foot” value in series [3] (first week of treatment, P<0.05 vs control) is reported as “decrease of the dorso-plantar diameter”. Further, the “lateral diameter of the lesions” value in series [3] (first week of treatment, P>0.05) is on record as “comparable to the diameter of control mice”. Moreover, the “activity compared with Amphotericin B” value in series [4] (i.p. every 12 h) is on record as “higher activity than Amphotericin B”. For the same compound, the lesion growth rate result in [4] (i.p. every 12 h, D 2 mg/Kg, F 100 mg/Kg) is “significantly lower compared to controls”. Besides, the “lesion evolution versus controls” value in series [6] (during and after 14 days treatment, Amphotericin B 1 mg/Kg) was “remained for two other weeks after treatment had finished”. The lesion growth entry in series [6] (first week of treatment, i.p. daily, F 50 mg/Kg) is reported as “minimal lesion growth”. The side effects entry in [7] was “did not evidence any side effect that impeded the continuation of therapy”. For the same compound, the “patients with total cure of the cutaneous lesions” value in series [7] (one hundred patients) amounted to 90%.
